Results reported in patent publication US20050059615A1, “Transmucosal dosage forms for brain-targeted steroid chemical delivery systems” (priority 2003, published 2005).
Read-outs that look alike come from different tables or passages of the source.

Key:
[1] = tested on: prolactin; assay: Phase I clinical study: prolactin; assay type: in vivo, postmenopausal women
Source text: A brief evaluation of the results follows:

[2] = tested on: ovariectomized female rats; assay: Lordosis quotient, female rat sexual behavior after ovariectomy; assay type: in vivo, Sprague Dawley rats
Experimental: Adult female Sprague Dawley rats (220-250 g) from Charles River Hungary Ltd., Godollo, Hungary, were used. Animals were kept in community cages (4 animals/cage) in a climate-controlled room (23∀2EC, 50-60% humidity), with a 14 hour light, 10 hour dark cycle of artificial lighting, using reversed light/dark cycle. Food and water were available ad libitum.
After a minimum five-day acclimatization period, animals were ovariectomized under ether anesthesia, then were left to recover for 3 weeks before testing (reconvalescence). All animals were treated in accordance with the guidelines of the European Communities Council Directive (86/609/EEC) and studies were permitted by the Institutional Animal Care Commission.
Estradiol benzoate and progesterone were obtained from Sigma Chemical Co. Inc., Budapest, Hungary. 2-Hydroxypropyl-β-cyclodextrin was purchased from Cerestar Inc., Hammond, Ind., US. […] E2-CDS as a 3% complex with HPβCD (E2-CDS-CD) was dissolved in distilled water and diluted with 27% HPβCD solution. E2-CDS-CD was synthesized by Alchem Laboratories Corporation, Alachua, Fla., US, using the procedure of Example 2 above.
After recovery from surgery, ovariectomized female rats were divided into four groups and treated once a day for five days intravenously, via a bolus injection through the tail vein, as follows: (1) control, 27% HPβCD solution; (2) 0.003 mg/kg E2-CDS dissolved in 27% HPβCD solution; (3) 0.01 mg/kg E2-CDS dissolved in 27% HPβCD solution; and (4) 0.03 mg/kg E2-CDS dissolved in 27% HPβCD solution. A minimal number of ovariectomized (8 to 12) females were used per group. Intravenous treatments either with E2-CDS or HPβCD (controls) were carried out daily for 5 days beginning 2 days prior to the first day of behavior observations, in a volume of 0.05 mL/100 g body weight.
The behavior test was conducted in a plexiglass observation cage during the dark cycle. During behavioral observations, only a dim red light was on.
An experienced and active male rat was placed in the arena 5 minutes prior to the female. […] The lordosis quotient (LQ) expresses the estrogen effect on sexual receptivity and was calculated as follows: LQ=100×number of lordoses/10 mounts The observation of the sexual behavior of each female was carried out, in the case of E2-CDS, every day for 22 days; in the case of EB, investigations were carried out every day for 10 days. […] Citrated blood samples were taken by retro-orbital sinus puncture under light ether anesthesia. The samples were stored at 4EC for one hour, then centrifuged at 1000 g for 10 minutes. Plasma was separated and stored at −80EC until assayed. Plasma LH concentrations from individual samples were measured by double antibody radioimmunoassay kits obtained from Amersham Pharmacia Biotech, Rome, Italy. […] The limit of detection was 15 pg/mL.
(§1) Behavioral changes were analyzed using the Mann-Whitney U test (Siegel, Nonparametric Statistics for the Behavioral Sciences, New York; McGraw-Hill Book Company, Inc., 1956). The Fisher exact test was used for percentage comparisons (Zar, Biostatistical Analysis, Prentice Hall, Inc., Englewood Cliffs, N.J., 1974). Serum LH data were analyzed for each time and treatment group by analysis of variance (ANOVA) followed by Bonferroni posthoc test.

[3] = tested on: castrated male rats; assay: Male rat sexual (copulatory) behavior after orchidectomy; assay type: in vivo, Sprague Dawley rats
Experimental: Adult male Sprague Dawley rats (300-400 g) from Charles River Hungary Ltd., Godollo, Hungary, were used. Animals were kept in community cages (4 animals/cage) in a climate-controlled room (23∀2EC), with a 14 hour light, 10 hour dark cycle of artificial lighting, using reversed light/dark cycle. […] These hormones were dissolved in sunflower oil.
After establishment of basal behaviors as discussed below, selected animals were orchidectomized via a single midventral incision and were rehoused.
After repeated testing of animals recovered from orchidectomy as discussed below, rats were divided into four groups and treated intravenously, via a single tail vein injection, with one of the following: group 1: control (27% hydroxypropyl-β-cyclodextrin); group 2: 0.03 mg/kg E2-CDS; group 3: 0.3 mg/kg E2-CDS; and group 4: 3 mg/kg E2-CDS.
Mating was observed during the dark cycle in a plexi observation cage in a room where only a dim red light was on. The male was placed in the observation cage 5 minutes prior to the female.
The following parameters were then measured: • Mount latency (ML): the time from the introduction of the female to the initial mount or intromission; • Intromission latency (IL): the time from introduction of the female to the first intromission; and • Ejaculatory latency (EL): the time from the first intromission to ejaculation.
Sessions were considered negative if IL exceeded 15 minutes.
To establish basal behavior, each male was tested every 5 days until four successive and consistent behavioral patterns were achieved. This pretesting lasted for about four weeks. Approximately half of the animals tested were deemed suitable for orchidectomy.
Twenty-eight days after healing from orchidectomy, the animals were tested again (Day 0) and divided into 4 experimental groups. Only animals displaying ejaculation latencies greater than 15 minutes were included in the study.
Tests of male sexual behavior were conducted 3, 7, 14, 21, 28, 35 and 42 days after drug administration or until the effect disappeared, i.e. until no statistically significant difference was found between groups during two consecutive tests.
Behavioral patterns and related times were recorded manually by skilled observers.
as §1
The testing described above was repeated using a dose of 0.03 mg/kg administered as a single i.v. injection, and a dose of 0.01 mg/kg with daily i.v. administration for 10 days. E2-CDS stock solution (40%) was diluted in 27% HPβCD solution.
The copulatory behavior of E2-CDS treated groups was compared to that of the HPβCD control group at 1, 3, 7, 14, and 21 days after i.v. drug administration in the 0.03 mg/kg group and at 1, 3, 7, 14 and 21 days after initial i.v. drug administration in the 0.01 mg/kg×10 days group.

[4] = average 7 degrees of substitution, cited from earlier work
[5] = 0.003 mg/kg i.v. once a day for 5 days
[6] = 0.01 mg/kg i.v. once a day for 5 days
[7] = 0.03 mg/kg i.v. once a day for 5 days
[8] = 0.01 mg/kg i.v. daily for 10 days
[9] = 0.01 mg/kg i.v. daily for 10 days, by day 14
[10] = 3.0 mg/kg single i.v., days 14, 21 and 28

CN1C=CCC(C(=O)O[C@H]2CC[C@H]3[C@@H]4CCc5cc(O)ccc5[C@H]4CC[C@]23C)=C1 [E2-CDS, 17β-[(1-methyl-1,4-dihydro-3-pyridinyl)carbonyloxy]estra-1,3,5(10)-trien-3-ol]
increase in prolactin levels compared to baseline ([1]; end of the study (day 13), Group A): 29.8% | increase in prolactin levels compared to baseline ([1]; end of the study (day 16), Group B): 16% | effect on lordosis quotient [2, 5]: slightly enhanced | period of the LQ effect [2, 5]: 3 to 18 days | statistical significance of LQ effect [2, 5]: not statistically significant | day till which the LQ increase lasted (not statistically significant after day 11) [2, 6]: 15 days | effect on lordosis quotient LQ [2, 6]: significantly enhanced | period of the LQ effect [2, 6]: day 5 to day 11 | effect on lordosis quotient LQ [2, 7]: significantly enhanced | maximal value of lordosis quotient (LQ) [2, 7]: 73 | period over which the LQ effect lasted [2, 7]: day 3 to day 18 | intromission frequency [3, 8]: not increased significantly | intromission latency [3, 8]: reduced significantly | mount frequency [3, 8]: increased significantly | mount latency [3, 8]: reduced significantly | intromission performance restored (% of animals) [3, 9]: 50% | mounting performance restored (% of animals) [3, 9]: 67% | effect on re-establishment of copulatory behavior ([3]; 0.03 mg/kg single i.v.): no statistically significant effect | sexual activity ([3]; 0.03 mg/kg single i.v., repeated testing): improved sexual activity, but it was not statistically significant | mounting performance restored (% of the animals) ([3]; 0.3 mg/kg single i.v., by day 7): 100% | mount frequency ([3]; 0.3 mg/kg single i.v., day 7): significantly increased | mount latency ([3]; 0.3 mg/kg single i.v., day 7 through day 28): sharply reduced | mounting performance restored (% of the animals) ([3]; 3.0 mg/kg single i.v., by day 14 and day 21): 100% | mount latency ([3]; 3.0 mg/kg single i.v., day 7 through day 28): sharply reduced | intromission performance ([3]; 3.0 mg/kg single i.v., day 14 through day 28): improved in a statistically significant manner | mount frequency ([3]; 3.0 mg/kg single i.v., days 7, 14, 21 and 28): significantly increased | intromission frequency [3, 10]: statistically significant increase | intromission latency [3, 10]: decrease | solubility of E2-CDS (phase solubility data point) ([4]; 20% w/v HPβCD): 6.73 mg/mL | solubility of E2-CDS (phase solubility data point) ([4]; 40% w/v HPβCD): 16.36 mg/mL | solubility of E2-CDS (phase solubility data point) ([4]; 60% w/v HPβCD): 30.19 mg/mL
